For six compounds, IC50 and selective inhibitory activity results are on record in patent publication US12514851B2, “Use of 2,3,5-substituted thiophene compound for preventing, ameliorating, or treating ovarian cancer” (PHAROS IBIO CO., LTD, priority 2020, dated 2026).

Format in all cases: cell-based
The test system of assay [1] is CAOV3 ovarian cancer cell line. The experiment in a line: Inhibitory activity against ovarian cancer cell lines, agents alone (Celltiter glo cell viability). (In general: Cellular ATP, detected with luciferase, serves as a proxy for viable cell number.)
Procedure: (§5) In 100-mm culture dishes (SPL) at 37° C. under 5% CO2, the CAOV3 ovarian cancer cell line was cultured using DMEM (Dulbeco's Modified Eagle Medium), and the OVCAR3, SK-OV-3 and SW626 ovarian cancer cell lines were cultured using RPMI1640 medium. Thereafter, each cell line was diluted to 3,000 cells/80 μl using PBS (phosphate-buffered saline) (Biosesang).
(§6) After incubation, the cells were counted using a Celltiter glo assay kit (Promega), and cell viability was measured by expressing the cell count as a percentage relative to that of a control group not treated with PHI-101 or the anticancer agent.
For assay [2], the system named is OVCAR3 ovarian cancer cell line. Described as above.
Procedure: as §5, §6
The test system of assay [3] is SK-OV-3 ovarian cancer cell line. Described as above. The settings on record: SK-OV3.
Procedure: as §5, §6
In assay [4] the test system is SW626 ovarian cancer cell line. The description is as above.
Procedure: as §5, §6
The subject of assay [5] is CAOV3 ovarian cancer cell line. The experiment in a line: Synergistic effect of PHI-101 and olaparib (Celltiter glo viability, Combination Index by CalcuSyn). To be noted: Homo sapiens, Caov-3, Table 7, combination index experiment, 72 hours. On the procedure: (§1) In order to establish the concentrations of PHI-101 and olaparib which are in an integer ratio in the combination index experiment, based on the IC50 value of olaparib relative to the relatively low IC50 value (1×) of PHI-101, the integer ratio between PHI-101 and olaparib was obtained as shown in Table 4 below.
(§2) Each prepared 10× solution was serially diluted at 1:2 in each of six E-tubes, each containing 150 μl of medium. Then, a PHI-101 96-well plate (FIG. 4) and an olaparib 96-well plate (FIG. 5) were prepared separately, and 30 μl of the serially diluted PHI-101 or olaparib was dispensed into each well of the corresponding plate. 30 μl of medium was dispensed into each well not containing the substance.
(§3) Then, each well was incubated at 37° C. under 5% CO2 for 72 hours, and each experiment was performed in triplicate.
(§4) Next, using the CalcuSyn software and based on the Combination Index (CI) shown in Table 8, the CI for each ovarian cancer cell line depending on the treatment concentrations of PHI-101 and olaparib was calculated, and whether there was synergism between the substances was evaluated.

In assay [6] the test system is OVCAR3 ovarian cancer cell line. The description is as above. To be noted: Homo sapiens, OVCAR-3, Table 7, combination index experiment, 72 hours. On the procedure: as §1, §2, §3, §4
The subject of assay [7] is SK-OV3 ovarian cancer cell line. The description is as above. The settings on record: Homo sapiens, SK-OV-3, Table 7, combination index experiment, 72 hours. The method, then:
as §1, §2, §3, §4

Assay [8] has as its system TP53-mutant ovarian cancer cell lines. The experiment in a line: Selective inhibitory activity against TP53-mutant ovarian cancer cell lines. To be noted: TP53-mutant versus non-mutant ovarian cancer cell lines (Table 2). From the text: In order to evaluate the selective inhibitory activity of PHI-101, the characteristics of each cell line and the inhibitory activity of PHI-101 against ovarian cancer cell lines were investigated as shown in Table 2 below.

Setting [9] is: Homo sapiens, Caov-3, agent alone, 72 hours.
The mark [10] stands for this setting: Homo sapiens, OVCAR-3, agent alone, 72 hours.
Setting [11] is: Homo sapiens, SK-OV-3, agent alone, 72 hours.
[12] abbreviates: Homo sapiens, agent alone, 72 hours.

As usually defined, the IC50 is the concentration that gives 50% inhibition. With `N.N.[Cl][Pt][Cl]` [Cisplatin, cisplatin], the IC50 in assay [1] (agent alone, 72 hours) turned out to be 3.5 µM; in assay [2] (agent alone, 72 hours), 4.4 µM; in assay [3] (agent alone, 72 hours), 12.3 µM; in assay [4] (agent alone, 72 hours) it was 8 µM.

Turning to `O=C(c1cc(Cc2n[nH]c(=O)c3ccccc23)ccc1F)N1CCN(C(=O)C2CC2)CC1` [Olaparib, olaparib], the IC50 in assay [1] (setting [9]) was 59.7 µM; in assay [2] (setting [10]) it was 96.5 µM; in assay [3] (setting [11]), 114 µM; in assay [4] (setting [12]), 147 µM; in assay [5] it was 59.7 µM; in assay [6], 96.5 µM. Besides, the IC50 in assay [7] was 114 µM.

`NC(=O)Nc1cc(C#Cc2cccc(F)c2)sc1C(=O)N[C@H]1CCCNC1` [PHI-101, (S)-5-((3-fluorophenyl)ethynyl)-N-(piperidin-3-yl)-3-ureido thiophene-2-carboxamide]: the IC50 in assay [1] (Homo sapiens, Caov-3, Table 4, values used to establish treatment starting concentrations) came to 0.523 µM; in assay [1] (setting [9]), 0.5 µM; in assay [2] (Homo sapiens, OVCAR-3, Table 4, values used to establish treatment starting concentrations), 2.76 µM; in assay [2] (setting [10]), 2.7 µM; in assay [3] (Homo sapiens, SK-OV-3, Table 4, values used to establish treatment starting concentrations), 5.6 µM; in assay [3] (setting [11]), 5.6 µM. Moreover, the IC50 in assay [4] (Homo sapiens, Table 4, values used to establish treatment starting concentrations) was 3.64 µM; in assay [4] (setting [12]) it was 3.6 µM; in assay [5], 0.873 µM; in assay [6], 3.5 µM; in assay [7], 4.39 µM. Further, the selective inhibitory activity entry in assay [8] is reported as “better inhibitory activity against the TP53-mutant ovarian cancer cell lines”.

On to `CC(=O)O[C@H]1C(=O)[C@@]2(C)[C@H]([C@H](OC(=O)c3ccccc3)[C@]3(O)C[C@H](OC(=O)[C@H](O)[C@@H](NC(=O)c4ccccc4)c4ccccc4)C(C)=C1C3(C)C)[C@]1(OC(C)=O)CO[C@@H]1C[C@@H]2O` [Paclitaxel, paclitaxel], for which the IC50 in assay [1] (setting [9]) was 3.6 µM; in assay [2] (setting [10]), 5.7 µM; in assay [3] (setting [11]) it was 114 µM; in assay [4] (setting [12]) it was 29.8 µM.

Compound `COc1cccc(OCCCN)c1-c1cc(Nc2cnc(C#N)cn2)n[nH]1` [Prexasertib, prexasertib] yielded an IC50 in assay [2] (setting [10]) of 6.3 µM.

With `CC[C@@]1(O)C(=O)OCc2c1cc1n(c2=O)Cc2cc3c(CN(C)C)c(O)ccc3nc2-1` [Topotecan, topotecan], the half-maximal inhibitory concentration (IC50) in assay [1] (setting [9]) was found to be 3.9 µM; in assay [2] (setting [10]), 8.3 µM; in assay [3] (setting [11]), 3.7 µM; in assay [4] (setting [12]) it was 14.4 µM.
